Reference: PMC8007111, “Novel Potent Muscarinic Receptor Antagonists: Investigation on the Nature of Lipophilic Substituents in the 5- and/or 6-Positions of the 1,4-Dioxane Nucleus” (Journal of Medicinal Chemistry, 2020)

Legend:
Settings in all cases: [3H]NMS, CHO-K1 cell membranes, mean ± S.E.M.
[1] = target: T1, hM3 mAChR (Homo sapiens, UniProt P20309); test: [3H]NMS inhibition radioligand binding, hM3 in CHO-K1 cell membranes
T1 construct: expressed in transfected cells; host or cells: CHO-K1 (membrane preparation)
T1 sequence (P20309 whole entry): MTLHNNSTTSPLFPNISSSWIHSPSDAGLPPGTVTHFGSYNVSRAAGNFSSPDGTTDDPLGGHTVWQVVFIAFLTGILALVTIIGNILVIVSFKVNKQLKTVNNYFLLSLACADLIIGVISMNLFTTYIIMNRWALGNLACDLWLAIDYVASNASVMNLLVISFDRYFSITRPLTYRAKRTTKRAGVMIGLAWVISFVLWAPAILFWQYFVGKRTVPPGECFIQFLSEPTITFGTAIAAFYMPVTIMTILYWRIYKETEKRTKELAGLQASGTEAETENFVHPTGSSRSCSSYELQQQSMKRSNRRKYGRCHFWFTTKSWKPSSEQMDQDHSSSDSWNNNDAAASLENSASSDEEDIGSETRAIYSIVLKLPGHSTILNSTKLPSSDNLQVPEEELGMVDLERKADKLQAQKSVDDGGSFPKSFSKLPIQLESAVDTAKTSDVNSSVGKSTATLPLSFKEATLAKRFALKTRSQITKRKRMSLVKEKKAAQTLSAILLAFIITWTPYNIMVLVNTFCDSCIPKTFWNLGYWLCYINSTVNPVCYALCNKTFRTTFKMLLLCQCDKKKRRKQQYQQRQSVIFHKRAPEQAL
Protocol: (§1) CHO-K1 cells stably transfected with the human muscarinic receptor subtypes (hM1–5) were grown in Dulbecco’s modified Eagle’s medium (DMEM) with nutrient mixture F12 (DMEM/F12, 50/50), containing 10% fetal bovine serum, penicillin (100 U/mL), streptomycin (100 U/mL), L-glutamine (4 mM), and geneticin (G-418, 50 μg/mL) at 37 °C in a 5% CO2 humidified incubator. […] Serum (0.7 mL) was added to inactivate the trypsin, and the cells were spun down by centrifuging at 300g for 5 min. The cells were then resuspended in ice-cold 25 mM sodium phosphate buffer containing 5 mM MgCl2, pH 7.4 (binding buffer) and homogenized using a cell disrupter (Ultra-Turrax, setting 3, 30 s). The homogenate was sedimented by centrifugation (17,000g, 15 min). The supernatant was discarded, and the resulting membrane pellets were resuspended with Ultra-Turrax in the same buffer to give a final protein concentration of 1–2 mg/mL. The protein content was determined by the method of Bradford (1976) with bovine serum albumin (Sigma) as a standard and stored at −80 °C.
(§2) Inhibition radioligand binding assays were conducted as previously described[48],[49] with 0.2 nM [^3H]NMS in binding buffer in a final volume of 250 μL. Nonspecific binding was defined in the presence of 10 μM atropine. Briefly, membrane fractions (about 25–70 μg/mL of protein) were incubated with radioligand and unlabeled test compounds for 2 h at r.t. Bound and free radioactivity were separated by filtering the assay mixture through UniFilter GF/B plates using a FilterMate Cell Harvester (PerkinElmer Life and Analytical Science). The filter bound radioactivity was counted by a TopCount NXT Microplate Scintillation Counter (PerkinElmer Life and Analytical Science). Data (cpm) were normalized to percentage-specific binding and analyzed using a four-parameter logistic equation in GraphPad Prism 5.02; IC50 values were determined, and Ki values were calculated.[59]

[2] = target: T2, hM4 mAChR (Homo sapiens, UniProt P08173); test: [3H]NMS inhibition radioligand binding, hM4 in CHO-K1 cell membranes
T2 construct: expressed in transfected cells; host or cells: CHO-K1 (membrane preparation)
T2 sequence (P08173 1-479): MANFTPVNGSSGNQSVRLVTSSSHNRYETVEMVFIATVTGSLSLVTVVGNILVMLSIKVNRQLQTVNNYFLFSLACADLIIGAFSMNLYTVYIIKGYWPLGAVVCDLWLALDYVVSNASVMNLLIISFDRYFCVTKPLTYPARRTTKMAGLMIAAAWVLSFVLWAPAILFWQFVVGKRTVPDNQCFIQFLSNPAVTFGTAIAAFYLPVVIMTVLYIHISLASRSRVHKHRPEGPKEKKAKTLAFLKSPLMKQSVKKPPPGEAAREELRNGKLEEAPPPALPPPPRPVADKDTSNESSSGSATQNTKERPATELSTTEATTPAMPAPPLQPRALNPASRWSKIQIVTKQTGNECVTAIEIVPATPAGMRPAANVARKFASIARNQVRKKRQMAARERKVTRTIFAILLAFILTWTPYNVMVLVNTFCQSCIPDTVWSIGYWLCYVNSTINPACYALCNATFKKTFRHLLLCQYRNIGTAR
Protocol: as §1, §2

[3] = target: T3, hM1 mAChR (Homo sapiens, UniProt P11229); test: [3H]NMS inhibition radioligand binding, hM1 in CHO-K1 cell membranes
T3 construct: expressed in transfected cells; host or cells: CHO-K1 (membrane preparation)
T3 sequence (P11229 1-460): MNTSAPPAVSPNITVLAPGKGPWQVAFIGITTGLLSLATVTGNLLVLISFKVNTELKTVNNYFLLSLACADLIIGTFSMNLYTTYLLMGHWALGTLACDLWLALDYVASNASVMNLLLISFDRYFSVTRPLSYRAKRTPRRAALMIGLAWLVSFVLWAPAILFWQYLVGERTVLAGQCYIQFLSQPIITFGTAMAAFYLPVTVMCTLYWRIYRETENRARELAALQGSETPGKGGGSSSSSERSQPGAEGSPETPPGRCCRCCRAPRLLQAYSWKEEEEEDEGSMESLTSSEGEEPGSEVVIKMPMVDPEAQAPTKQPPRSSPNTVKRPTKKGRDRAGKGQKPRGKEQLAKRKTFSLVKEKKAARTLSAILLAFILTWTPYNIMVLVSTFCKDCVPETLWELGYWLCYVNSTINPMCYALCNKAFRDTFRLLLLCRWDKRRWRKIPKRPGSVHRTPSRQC
Protocol: as §1, §2

[4] = target: T4, hM5 mAChR (Homo sapiens, UniProt P08912); test: [3H]NMS inhibition radioligand binding, hM5 in CHO-K1 cell membranes
T4 construct: expressed in transfected cells; host or cells: CHO-K1 (membrane preparation)
T4 sequence (P08912 1-532): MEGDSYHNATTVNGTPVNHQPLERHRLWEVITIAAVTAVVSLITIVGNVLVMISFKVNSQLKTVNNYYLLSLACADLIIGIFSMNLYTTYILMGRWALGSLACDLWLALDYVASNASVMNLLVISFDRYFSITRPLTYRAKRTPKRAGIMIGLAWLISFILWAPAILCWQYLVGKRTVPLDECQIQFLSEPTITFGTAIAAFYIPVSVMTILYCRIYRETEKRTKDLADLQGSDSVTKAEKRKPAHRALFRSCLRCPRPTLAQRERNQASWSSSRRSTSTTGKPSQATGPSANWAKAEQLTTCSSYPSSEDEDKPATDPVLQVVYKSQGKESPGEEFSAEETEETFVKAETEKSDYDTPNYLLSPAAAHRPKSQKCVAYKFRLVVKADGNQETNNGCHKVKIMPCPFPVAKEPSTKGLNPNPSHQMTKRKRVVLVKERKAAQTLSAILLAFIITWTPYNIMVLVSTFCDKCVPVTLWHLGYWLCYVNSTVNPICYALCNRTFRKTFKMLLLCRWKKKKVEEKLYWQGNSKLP
Protocol: as §1, §2

[5] = target: T5, hM2 mAChR (Homo sapiens, UniProt P08172); test: [3H]NMS inhibition radioligand binding, hM2 in CHO-K1 cell membranes
T5 construct: expressed in transfected cells; host or cells: CHO-K1 (membrane preparation)
T5 sequence (P08172 1-466): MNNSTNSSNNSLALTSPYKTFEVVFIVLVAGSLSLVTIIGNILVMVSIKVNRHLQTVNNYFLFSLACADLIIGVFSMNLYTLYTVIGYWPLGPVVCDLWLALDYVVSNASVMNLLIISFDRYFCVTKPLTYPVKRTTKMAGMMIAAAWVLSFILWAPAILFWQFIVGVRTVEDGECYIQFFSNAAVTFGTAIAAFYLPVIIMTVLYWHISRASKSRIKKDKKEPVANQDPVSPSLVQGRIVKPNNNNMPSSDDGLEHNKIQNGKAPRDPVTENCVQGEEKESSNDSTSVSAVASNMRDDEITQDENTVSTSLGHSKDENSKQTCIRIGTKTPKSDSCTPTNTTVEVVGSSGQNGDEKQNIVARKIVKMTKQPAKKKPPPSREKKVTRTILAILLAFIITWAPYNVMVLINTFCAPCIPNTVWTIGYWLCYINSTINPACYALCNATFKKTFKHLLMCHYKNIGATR
Protocol: as §1, §2

Structure (SMILES)	Ki ([1]; read-out: pKi hM3 (converted)) [µM]	Ki ([2]; read-out: pKi hM4 (converted)) [µM]	Ki ([3]; read-out: pKi hM1 (converted)) [µM]	Ki ([4]; read-out: pKi hM5 (converted)) [µM]	Ki ([5]; read-out: pKi hM2 (converted)) [µM]	pKi hM3 [1]	pKi hM4 [2]	pKi hM1 [3]	pKi hM5 [4]	pKi hM2 [5]
C[N+](C)(C)CC1COCC(c2ccc(Cc3ccccc3)cc2)O1 (mixture of isomers) [5a/b, 1-((2R*,6S*)-6-(4-Benzylphenyl)-1,4-dioxan-2-yl)-N,N,N-trimethylmethanaminium Iodide and 1-((2R*,6R*)-6-(4-Benzylphenyl)-1,4-dioxan-2-yl)-N,N,N-trimethylmethanaminium Iodide]	> 10	> 10	> 10	7.41	4.9					
C[N+](C)(C)C[C@@H]1COC[C@H](c2ccc(-c3ccccc3)cc2)O1.[I-] (relative stereo) [4a, 1-((2R*,6S*)-6-([1,1′-Biphenyl]-4-yl)-1,4-dioxan-2-yl)-N,N,N-trimethylmethanaminium Iodide]						<5	<5	<5	<5	5.06 ± 0.02
C[N+](C)(C)C[C@@H]1COC[C@@H](c2ccc(-c3ccccc3)cc2)O1.[I-] (relative stereo) [4b, 1-((2R*,6R*)-6-([1,1′-Biphenyl]-4-yl)-1,4-dioxan-2-yl)-N,N,N-trimethylmethanaminium Iodide]						<5	<5	<5	<5	5.27 ± 0.12
C[N+](C)(C)C[C@@H]1COC[C@H](c2ccc(Sc3ccccc3)cc2)O1.[I-] (relative stereo) [6a, 1-((2R*,6S*)-6-(4-(Phenylthio)phenyl)-1,4-dioxan-2-yl)-N,N,N-trimethylmethanaminium Iodide]						<5	5.43 ± 0.05	5.50 ± 0.05	5.58 ± 0.13	5.47 ± 0.07
C[N+](C)(C)C[C@@H]1COC[C@@H](c2ccc(Sc3ccccc3)cc2)O1.[I-] (relative stereo) [6b, 1-((2R*,6R*)-6-(4-(Phenylthio)phenyl)-1,4-dioxan-2-yl)-N,N,N-trimethylmethanaminium Iodide]						5.77 ± 0.05	5.70 ± 0.02	5.51 ± 0.01	5.95 ± 0.13	6.71 ± 0.01
C[N+](C)(C)C[C@@H]1COC[C@H](c2ccc([S+]([O-])c3ccccc3)cc2)O1.[I-] (relative stereo) [7a, 1-((2R*,6S*)-6-(4-(Phenylsulfinyl)phenyl)-1,4-dioxan-2-yl)-N,N,N-trimethylmethanaminium Iodide]						<5	<5	<5	5.21 ± 0.08	5.52 ± 0.02
C[N+](C)(C)C[C@@H]1COC[C@@H](c2ccc([S+]([O-])c3ccccc3)cc2)O1.[I-] (relative stereo) [7b, 1-((2R*,6R*)-6-(4-(Phenylsulfinyl)phenyl)-1,4-dioxan-2-yl)-N,N,N-trimethylmethanaminium Iodide]						5.88 ± 0.14	5.42 ± 0.02	5.17 ± 0.08	5.74 ± 0.16	6.38 ± 0.10
C[N+](C)(C)C[C@@H]1COC[C@H](c2ccc(S(=O)(=O)c3ccccc3)cc2)O1.[I-] (relative stereo) [8a, 1-((2R*,6S*)-6-(4-(Phenylsulfonyl)phenyl)-1,4-dioxan-2-yl)-N,N,N-trimethylmethanaminium Iodide]						<5	<5	5.08 ± 0.09	5.21 ± 0.14	5.13 ± 0.01
C[N+](C)(C)C[C@@H]1COC[C@@H](c2ccc(S(=O)(=O)c3ccccc3)cc2)O1.[I-] (relative stereo) [8b, 1-((2R*,6R*)-6-(4-(Phenylsulfonyl)phenyl)-1,4-dioxan-2-yl)-N,N,N-trimethylmethanaminium Iodide]						5.63 ± 0.14	5.20 ± 0.07	5.29 ± 0.07	5.80 ± 0.06	6.70 ± 0.01
C[N+](C)(C)C[C@@H]1CO[C@H](c2ccccc2)CO1.[I-] (relative stereo) [9a, 1-((2R*,5R*)-5-Phenyl-1,4-dioxan-2-yl)-N,N,N-trimethylmethanaminium Iodide]						5.14 ± 0.10	5.10 ± 0.07	5.63 ± 0.07	<5	5.06 ± 0.10
C[N+](C)(C)C[C@@H]1CO[C@@H](c2ccccc2)CO1.[I-] (relative stereo) [9b, 1-((2R*,5S*)-5-Phenyl-1,4-dioxan-2-yl)-N,N,N-trimethylmethanaminium Iodide]						<5	<5	<5	<5	<5
C[N+](C)(C)C[C@@H]1CO[C@@](c2ccccc2)(C2CCCCC2)CO1.[I-] (relative stereo) [11a, 1-((2R*,5R*)-5-Cyclohexyl-5-phenyl-1,4-dioxan-2-yl)-N,N,N-trimethylmethanaminium Iodide]						7.43 ± 0.09	7.15 ± 0.09	8.01 ± 0.06	7.45 ± 0.08	7.26 ± 0.08
